Laboratory results published in publication PMC2442904 (British Journal of Pharmacology, 2008).

Target: thioredoxin-1 (Trx) (Homo sapiens, UniProt P10599)
Experiment: insulin reduction assay with pure human Trx preincubated with PMX464
Format: biochemical

Sequence of thioredoxin-1 (Trx) (P10599 2-105): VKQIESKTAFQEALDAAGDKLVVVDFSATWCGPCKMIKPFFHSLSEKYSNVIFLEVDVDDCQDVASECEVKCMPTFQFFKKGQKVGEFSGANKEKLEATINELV

IC50: 20 µM
SMILES: O=C1C=CC(O)(c2nc3ccccc3s2)C=C1 [PMX464, 4-(benzothiazol-2-yl)-4-hydroxycyclohexa-2,5-dien-1-one hydrate]
